Results on 5 molecules are retold here after patent US4351948A, “Imidazole hydrazone derivatives” (priority 1980, dated 1982).

A short description of one series: in vivo. Particulars: male mice, 7 day; for LD12.5: p.o.
For series [1], the system named is platelet thromboxane generation. Put plainly: Inhibition of platelet thromboxane generation (TxB2, collagen-stimulated human platelet rich plasma). It is filed as cell-based. The following applies: 10 min, collagen 8 μg/ml, human PRP, 10 min. incubation, 37° C., read-out: Activity IC50 (50% inhibition of TxB2 generation). As to the method: The compounds used according to the invention as anti-thrombotics were tested by the following method for their ability to inhibit platelet thromboxane generation.
Human venous blood was collected from healthy male donors, who had denied any medication in the previous 14 days. Nine volumes of blood were mixed with one volume of 3.24% trisodium citrate. The citrated blood was centrifuged at 160 g for 10 mins. at 22° C. to obtain platelet rich plasma (PRP). The platelets were then counted on a Coulter counter, and the platelet count was adjusted to 200,000 per μl with plasma.
The PRP was then dispensed as aliquots into micro-Eppendorf tubes, maintained at 37° C. in a dry bath. The compounds dissolved either in saline, ethanol, or DMSO were added in duplicate to the PRP aliquots to produce final concentrations of 0.3, 3 and 30 μg/ml. When ethanol and DMSO were used as the vehicle, triplicate controls containing the same percentage of vehicle as the test compounds were made. The final concentration or organic solvent was never more than 0.1%, which in previous experiments had no effect on TxB2 generation.
Following a 10 min. incubation with test compounds or vehicle, collagen was added to produce a final concentration of 8 μg/ml. The tubes were then whirly-mixed for 15 seconds and replaced in the dry bath for a further 10 minutes, controls received saline instead of collagen. The reaction was then stopped by rapid centrifugation, 15,000 g for 3 mins. The plasma was removed and frozen at -29° C. until assayed.
Briefly, 100 μl aliquots, in tricine buffered saline+0.8% gelatin (pH 8.0) of the following were incubated together for 1 hour at 37° C.: thromboxane Tx B2 (plasma extract, spiked plasma extract or standards 20 to 20,000 pg/ml), ^3 H--TxB2 (approximately 15,000 dpm) and anti-TxB2 antiserum (0.5 μg/100 μl). The free and protein bound ^3 H--TxB2 were separated by ammonium sulphate precipitation followed by centrifugation. 300 μl of the supernatant was added to an aqueous scintillation fluid, and the radioactivity present was counted in a liquid scintillation counter. The binding of ^3 H--TxB2 in the absence of added TxB2 was approximately 55%. The least amount of TxB2 to be detected accurately in the plasma was 0.08 ng/ml. Cross reactivity with other prostaglandins is less than 0.005% except PGD2 which is 1%.
Thus plasma samples were assayed to give a rough approximation of TxB2 content. The plasma was then appropriately diluted and assayed in duplicate to give accurate values.
The amount of TxB2 generated by the collagen was calculated by subtracting mean values obtained for the saline stimulated platelets from the mean values obtained from the collagen stimulated platelets. Then the amount of TxB2 generated in the presence of each concentration of compound was expressed as a % control and dose response curves were then constructed to determine the concentration of compound which produced a 50% inhibition.

The subject of the next series is T. vaginalis ATCC 30001. The series can be described thus: Antianaerobic activity, MIC by standard broth dilution method (Table II). It is filed as cell-based. Particulars: Trichomonas vaginalis, ATCC30001, 24 h, read-out: Minimal Inhibitory Concentration (MIC). The procedure: (§1) The activity of the compounds identified in the Table II below was tested for antianaerobic activity against one strain of Bacteroides fragilis, one strain of Bacteroides uniformis, one strain of Clostridium sporogenes and one strain of Trichomonas vaginalis as the test organism. The methods used involved determining the minimum inhibitory concentration by the standard broth dilution method. […] For convenience the compounds are referred to by an internal reference number (an HC number) and this is correlated with the number of the Example wherein its production is described.

The test system of another series is B. uniformis ATCC 8492. The series is described as above. Type of series: cell-based. The following applies: Bacteroides uniformis, ATCC8492, 24 h, read-out: Minimal Inhibitory Concentration (MIC). As to the method: as §1
The subject of another series is B. fragilis ATCC 23745. The description is as above. It is filed as cell-based. Particulars: Bacteroides fragilis, ATCC23745, 24 h, read-out: Minimal Inhibitory Concentration (MIC). The procedure: as §1
The next series has as its system C. sporogenes ATCC 19404. The series is described as above. It is filed as cell-based. The following applies: Clostridium sporogenes, ATCC19404, 24 h, read-out: Minimal Inhibitory Concentration (MIC). As to the method: The activity of the compounds identified in the Table II below was tested for antianaerobic activity against one strain of Bacteroides fragilis, one strain of Bacteroides uniformis, one strain of Clostridium sporogenes and one strain of Trichomonas vaginalis as the test organism. The methods used involved determining the minimum inhibitory concentration by the standard broth dilution method. The values for metronidazole (2-methyl-5-nitro-1H-imidazole-1-ethanol) are given above for reference purposes. For convenience the compounds are referred to by an internal reference number (an HC number) and this is correlated with the number of the Example wherein its production is described.

SMILES strings stand for the structures. Structures can show the parent of a compound that is named as a salt. Where two headings read alike, the source gives them in different places.

On to `Nc1nc(=O)[nH]cc1F` [5-Fluorocytosine], for which, in the series “in vivo” (mouse, in vivo, iv, read-out: LD50), the LD50 at 168 h stood at 500 mg/kg. In the series “in vivo”, this molecule had an LD12.5 of 500 mg/kg.

Regarding `Clc1ccc(C(Cn2ccnc2)=NNc2ccccc2)cc1` [HC 290, 1-(4-Chlorophenyl)-2-(1H-imidazol-1-yl)ethanone, phenylhydrazone, hydrochloride], the IC50 in series [1] amounted to 4.9 µM.

`C[C@@H]1[C@H](O)[C@@H](C)/C=C/C=C/C=C/C=C/C=C/C=C/C=C/[C@H](O[C@@H]2O[C@H](C)[C@@H](O)[C@H](N)[C@@H]2O)C[C@@H]2O[C@](O)(C[C@@H](O)C[C@@H](O)[C@H](O)CC[C@@H](O)C[C@@H](O)CC(=O)O[C@H]1C)C[C@H](O)[C@H]2C(=O)O` [Amphotericin B]: the LD12.5 in the series “in vivo” worked out at 280 mg/kg.

For the molecule `Cl.Clc1ccc(NN=C(Cn2ccnc2)c2ccccc2)cc1Cl` [HC-442, 1-phenyl-2-(1H-imidazol-1-yl)ethanone, 3,4-dichlorophenylhydrazone, hydrochloride], the MIC with T. vaginalis ATCC 30001 (Test 1) was found to be 50 µg/mL; in the series with T. vaginalis ATCC 30001 (Test 2) it was 75 µg/mL; with T. vaginalis ATCC 30001 (Test 3), 100 µg/mL; with B. uniformis ATCC 8492 (Test 1), 2.5 µg/mL; in the series with B. uniformis ATCC 8492 (Test 2) it was 5 µg/mL; with B. uniformis ATCC 8492 (Test 3), 5 µg/mL. In addition, the MIC stood at 2.5 µg/mL with B. fragilis ATCC 23745 (Test 1); 5 µg/mL with B. fragilis ATCC 23745 (Test 2); 5 µg/mL in the series with B. fragilis ATCC 23745 (Test 3); 5 µg/mL in the series with C. sporogenes ATCC 19404 (Test 1); 2.5 µg/mL with C. sporogenes ATCC 19404 (Test 2); 2.5 µg/mL in the series on C. sporogenes ATCC 19404 (Test 3).

As for `Clc1ccc(NN=C(Cn2ccnc2)c2ccc(Br)cc2)c(Cl)c1` [HC-378, 1-(4-bromophenyl)-2-(1H-imidazol-1-yl) ethanone, 2,4-dichlorophenylhydrazone, hydrochloride], the MIC in the series with T. vaginalis ATCC 30001 (Test 1) is over 50 µg/mL; in the series with T. vaginalis ATCC 30001 (Test 2), over 50 µg/mL; with T. vaginalis ATCC 30001 (Test 3) it was 50 µg/mL; with B. uniformis ATCC 8492 (Test 1) it was 10 µg/mL; in the series on B. uniformis ATCC 8492 (Test 2) it was 2.5 µg/mL; with B. uniformis ATCC 8492 (Test 3) it was 5 µg/mL. For the same molecule, the MIC with B. fragilis ATCC 23745 (Test 1) was 10 µg/mL; with B. fragilis ATCC 23745 (Test 2), 2.5 µg/mL; in the series on B. fragilis ATCC 23745 (Test 3) it was 2.5 µg/mL; in the series with C. sporogenes ATCC 19404 (Test 1) it was 50 µg/mL; with C. sporogenes ATCC 19404 (Test 2), 25 µg/mL; in the series with C. sporogenes ATCC 19404 (Test 3), 25 µg/mL.
